Assay results from PubChem BioAssay AID200 (DTP/NCI, 2004).
Several values for one entry are separate records, joined by “and”; a condition that tells them apart may be missing. Equal entries are not always repeated. Inconclusive results and toxic doses are left out. How the source made its calls: active means survival T/C of 150% or more; inactive means T/C below 125% in these data.

System: B6C3F1 mice, B16 melanoma ip, median survival T/C
Test: NCI In Vivo Anticancer Drug Screen. Data for tumor model B16 Melanoma (intraperitoneal) in B6C3F1 mice
Settings: endpoint: median survival time, higher = longer survival
Experimental: The antitumor activity of compounds was measured in mice bearing transplantable tumors. Survival or tumor size were measured and the results are expressed as the measurement made in the treated group (T) divided by the measurement made in the vehicle treated control group (C). The tumor model used in this assay is B16 Melanoma (intraperitoneal) in B6C3F1 mice

[1] = dose: 3.12 mg/kg/injection, schedule: Q01DX009 (ip), vehicle: Klucel (hydroxypropylcellulose) (HPC)
[2] = dose: 6.25 mg/kg/injection, schedule: Q01DX009 (ip), vehicle: Klucel (hydroxypropylcellulose) (HPC)
[3] = dose: 6.25 mg/kg/injection, schedule: Q01DX009 (ip), vehicle: saline
[4] = dose: 12.5 mg/kg/injection, schedule: Q01DX009 (ip), vehicle: saline
[5] = dose: 25.0 mg/kg/injection, schedule: Q01DX009 (ip), vehicle: Klucel (hydroxypropylcellulose) (HPC)
[6] = dose: 25.0 mg/kg/injection, schedule: Q01DX009 (ip), vehicle: saline
[7] = dose: 50.0 mg/kg/injection, schedule: Q01DX009 (ip), vehicle: saline
[8] = dose: 100.0 mg/kg/injection, schedule: Q01DX009 (ip), vehicle: saline
[9] = dose: 100.0 mg/kg/injection, schedule: Q01DX009 (ip), vehicle: Klucel (hydroxypropylcellulose) (HPC)
[10] = dose: 200.0 mg/kg/injection, schedule: Q01DX009 (ip), vehicle: Klucel (hydroxypropylcellulose) (HPC)
[11] = dose: 400.0 mg/kg/injection, schedule: Q01DX009 (ip), vehicle: Klucel (hydroxypropylcellulose) (HPC)
[12] = dose: 6.25 mg/kg/injection, schedule: Q01DX009 (ip), vehicle: saline with Tween-80
[13] = dose: 12.5 mg/kg/injection, schedule: Q01DX009 (ip), vehicle: saline with Tween-80
[14] = dose: 25.0 mg/kg/injection, schedule: Q01DX009 (ip), vehicle: saline with Tween-80
[15] = dose: 50.0 mg/kg/injection, schedule: Q01DX009 (ip), vehicle: saline with Tween-80
[16] = dose: 3.12 mg/kg/injection, schedule: Q01DX009 (ip), vehicle: saline

Measured: T/C

O=NN(CCCl)C(=O)NCCCl
active: dose: 6.0 mg/kg/injection, schedule: Q01DX009 (ip), vehicle: alcohol 184 % of control | dose: 6.0 mg/kg/injection, schedule: Q01DX009 (ip), vehicle: other 154 % of control | dose: 20.0 mg/kg/injection, schedule: Q01DX001 (ip), vehicle: saline + alcohol 154 % of control | dose: 30.0 mg/kg/injection, schedule: Q01DX001 (ip), vehicle: saline 156 % of control | dose: 40.0 mg/kg/injection, schedule: Q01DX001 (ip), vehicle: saline + alcohol 175 % of control | dose: 40.0 mg/kg/injection, schedule: Q01DX001 (iv), vehicle: saline + alcohol 185 % of control
inactive: dose: 1.5 mg/kg/injection, schedule: Q01DX009 (ip), vehicle: alcohol 112 % of control and 118 % of control | dose: 1.5 mg/kg/injection, schedule: Q01DX009 (ip), vehicle: other 108 % of control | dose: 3.0 mg/kg/injection, schedule: Q01DX009 (ip), vehicle: other 116 % of control | dose: 5.0 mg/kg/injection, schedule: Q01DX005 (iv), vehicle: saline + alcohol 107 % of control | dose: 10.0 mg/kg/injection, schedule: Q01DX001 (ip), vehicle: saline + alcohol 120 % of control | dose: 10.0 mg/kg/injection, schedule: Q01DX001 (ip), vehicle: saline 111 % of control and 120 % of control | dose: 10.0 mg/kg/injection, schedule: Q01DX001 (iv), vehicle: saline + alcohol 104 % of control | dose: 10.0 mg/kg/injection, schedule: Q01DX005 (iv), vehicle: saline + alcohol 124 % of control | dose: 12.0 mg/kg/injection, schedule: Q01DX009 (ip), vehicle: other 110 % of control

Cc1ccc2c(c1)Sc1ccc(N=NN(C)C)cc1N2C
inactive: dose: 6.25 mg/kg/injection, schedule: Q01DX009 (ip), vehicle: other 100 % of control | dose: 12.5 mg/kg/injection, schedule: Q01DX009 (ip), vehicle: other 114 % of control | dose: 25.0 mg/kg/injection, schedule: Q01DX009 (ip), vehicle: other 114 % of control | dose: 50.0 mg/kg/injection, schedule: Q01DX009 (ip), vehicle: other 115 % of control

CC(C)CC1C(=O)N2CCCC2C2(O)OC(NC(=O)C3C=C4c5cccc6[nH]cc(c56)CC4N(C)C3)(C(C)C)C(=O)N12 (stereo unspecified)
inactive: dose: 2.5 mg/kg/injection, schedule: Q01DX009 (ip), vehicle: Klucel (hydroxypropylcellulose) (HPC) 120 % of control | dose: 5.0 mg/kg/injection, schedule: Q01DX009 (ip), vehicle: Klucel (hydroxypropylcellulose) (HPC) 111 % of control | dose: 10.0 mg/kg/injection, schedule: Q01DX009 (ip), vehicle: Klucel (hydroxypropylcellulose) (HPC) 109 % of control | dose: 20.0 mg/kg/injection, schedule: Q01DX009 (ip), vehicle: Klucel (hydroxypropylcellulose) (HPC) 98 % of control | dose: 40.0 mg/kg/injection, schedule: Q01DX009 (ip), vehicle: Klucel (hydroxypropylcellulose) (HPC) 105 % of control

NC(=O)Oc1cc(OC(N)=O)cc(N(CCCl)CCCl)c1
active: [5] 170 % of control
inactive: [1] 115 % of control | [2] 107 % of control | [3] 91 % of control | [4] 96 % of control | [6] 104 % of control | [7] 104 % of control | [8] 102 % of control

CCOC(=O)Nc1cc2c(c(N)n1)N=C(CN(C)c1ccccc1)CN2
inactive: dose: 0.78 mg/kg/injection, schedule: Q01DX009 (ip), vehicle: Klucel (hydroxypropylcellulose) (HPC) 93 % of control | dose: 1.56 mg/kg/injection, schedule: Q01DX009 (ip), vehicle: Klucel (hydroxypropylcellulose) (HPC) 116 % of control | [1] 114 % of control | [2] 117 % of control

Cc1c(-c2ccc(C3CCCCC3)cc2)nc2ccc(F)cc2c1C(=O)O
inactive: [5] 121 % of control
active: [9] 155 % of control | [10] 150 % of control | [11] 160 % of control and 179 % of control

COc1cc2oc3c(C)c(=O)cc4oc(-c5ccccc5)cc(c2c2c1CCC(c1ccccc1)O2)c43 (stereo unspecified)
inactive: dose: 0.85 mg/kg/injection, schedule: Q01DX009 (ip), vehicle: Klucel (hydroxypropylcellulose) (HPC) 105 % of control | dose: 1.75 mg/kg/injection, schedule: Q01DX009 (ip), vehicle: Klucel (hydroxypropylcellulose) (HPC) 101 % of control | dose: 3.5 mg/kg/injection, schedule: Q01DX009 (ip), vehicle: Klucel (hydroxypropylcellulose) (HPC) 103 % of control | dose: 7.0 mg/kg/injection, schedule: Q01DX009 (ip), vehicle: Klucel (hydroxypropylcellulose) (HPC) 95 % of control and 106 % of control | dose: 14.0 mg/kg/injection, schedule: Q01DX009 (ip), vehicle: Klucel (hydroxypropylcellulose) (HPC) 97 % of control and 104 % of control | dose: 28.0 mg/kg/injection, schedule: Q01DX009 (ip), vehicle: Klucel (hydroxypropylcellulose) (HPC) 121 % of control

CCCCC(NC(=O)CNC(=O)OCc1ccccc1)C(=O)O (stereo unspecified)
inactive: [9] 92 % of control | [10] 96 % of control | [11] 92 % of control

COc1cc2cc(c1Cl)N(C)C(=O)C[C@H](OC(=O)[C@H](C)N(C)C(C)=O)[C@]1(C)O[C@H]1[C@H](C)[C@@H]1C[C@@](O)(NC(=O)O1)[C@H](OC)C=C/C=C(\C)C2
inactive: dose: 1.0 micrograms/kg/injection, schedule: Q01DX009 (ip), vehicle: saline + alcohol 121 % of control | dose: 2.0 micrograms/kg/injection, schedule: Q01DX005 (iv), vehicle: saline + alcohol 107 % of control | dose: 4.0 micrograms/kg/injection, schedule: Q01DX005 (iv), vehicle: saline + alcohol 106 % of control | dose: 8.0 micrograms/kg/injection, schedule: Q01DX005 (iv), vehicle: saline + alcohol 100 % of control and 106 % of control | dose: 64.0 micrograms/kg/injection, schedule: Q01DX005 (iv), vehicle: saline + alcohol 112 % of control and 113 % of control | dose: 128.0 micrograms/kg/injection, schedule: Q01DX005 (iv), vehicle: saline + alcohol 120 % of control
active: dose: 256.0 micrograms/kg/injection, schedule: Q01DX005 (iv), vehicle: saline + alcohol 152 % of control

Nc1ccc(S(=O)(=O)N/N=C/c2ccccc2[N+](=O)[O-])cc1
inactive: dose: 3.12 mg/kg/injection, schedule: Q01DX009 (ip), vehicle: saline with Tween-80 95 % of control | [12] 95 % of control | [13] 96 % of control | [14] 101 % of control | [15] 104 % of control

O=c1n(CC2CO2)c(=O)n(CC2CO2)c(=O)n1CC1CO1 (stereo unspecified)
active: dose: 5.0 mg/kg/injection, schedule: Q01DX009 (ip), vehicle: saline 155 % of control | [12] 171 % of control | dose: 6.25 mg/kg/injection, schedule: Q01DX009 (ip), vehicle: suspension in saline 178 % of control and 152 % of control | dose: 10.0 mg/kg/injection, schedule: Q01DX009 (ip), vehicle: saline 186 % of control | [13] 212 % of control and 153 % of control | [4] 188 % of control | dose: 12.5 mg/kg/injection, schedule: Q01DX009 (ip), vehicle: suspension in saline 211 % of control and 172 % of control | dose: 20.0 mg/kg/injection, schedule: Q01DX009 (ip), vehicle: saline 228 % of control | [14] 263 % of control and 197 % of control | [6] 205 % of control and 227 % of control and 170 % of control | dose: 25.0 mg/kg/injection, schedule: Q01DX009 (ip), vehicle: suspension in saline 282 % of control and 235 % of control | dose: 40.0 mg/kg/injection, schedule: Q01DX009 (ip), vehicle: saline 261 % of control | [15] 233 % of control | [7] 234 % of control and 172 % of control | dose: 50.0 mg/kg/injection, schedule: Q01DX009 (ip), vehicle: suspension in saline 255 % of control | [8] 191 % of control
inactive: [16] 121 % of control

CC(C)(C)OC(=O)NCCCCC(NC(=O)OCC1c2ccccc2-c2ccccc21)C(=O)O (stereo unspecified)
inactive: [5] 100 % of control | dose: 50.0 mg/kg/injection, schedule: Q01DX009 (ip), vehicle: Klucel (hydroxypropylcellulose) (HPC) 95 % of control

O=c1[nH]c2c(ccc3cnccc32)c2c1CCC2
inactive: [16] 97 % of control | [3] 113 % of control | [4] 119 % of control

CC(/C=N/N=C(N)N)=N\N=C(N)N
inactive: [6] 110 % of control | [7] 111 % of control | [8] 95 % of control
